In brackets after ≈: the same amount, converted by molar mass.
Legend:
Escherichia coli [1] = test: Antibacterial activity against wild-type Escherichia coli ATCC 25922 assessed as inhibition of bacterial growth incubated for 18 hrs; assay type: functional; conditions: read-out: MIC100
[2] = Cytotoxicity against human HepG2 cells incubated for 40 hrs by celltiter-glo luminescent cell viability assay; assay type: toxicity, cell-based
Klebsiella pneumoniae [3] = test: Antibacterial activity against wild-type Klebsiella pneumoniae ATCC 13883 assessed as inhibition of bacterial growth incubated for 18 hrs in presence of 50% heat inactivated human serum; assay type: functional; conditions: read-out: MIC100
Staphylococcus aureus = test: Antibacterial activity against […] assessed as inhibition of bacterial growth incubated for 18 hrs; assay type: functional; conditions: ATCC 29213, read-out: MIC100
Pseudomonas aeruginosa = test: Antibacterial activity against wild-type Pseudomonas aeruginosa PAO1 assessed as inhibition of bacterial growth incubated for 24 hrs; assay type: functional; conditions: read-out: MIC100
Escherichia coli [4] = test: Antibacterial activity against wild-type Escherichia coli ATCC 25922 assessed as inhibition of bacterial growth incubated for 18 hrs in presence of 50% heat inactivated human serum; assay type: functional; conditions: read-out: MIC100
[5] = Hydrophobicity of compound assessed as %MeCN at peak elution by RP-HPLC analysis; assay type: physicochemical
Acinetobacter baumannii = test: Antibacterial activity against wild-type Acinetobacter baumannii ATCC 19606 assessed as inhibition of bacterial growth incubated for 20 hrs; assay type: functional; conditions: read-out: MIC100
[6] = Hemolytic activity in human red blood cells at 400 ug/ml incubated for 45 mins by spectrophotometric analysis relative to control; assay type: toxicity, cell-based, Erythrocyte; conditions: red blood cells (erythrocytes), at 400 µg/mL, read-out: Activity
Klebsiella pneumoniae [7] = test: Antibacterial activity against wild-type Klebsiella pneumoniae ATCC 13883 assessed as inhibition of bacterial growth incubated for 18 hrs; assay type: functional; conditions: read-out: MIC100
Escherichia coli [8] = test: Antibacterial activity against Escherichia coli ATCC 25922 harboring tolC knock-out assessed as inhibition of bacterial growth incubated for 18 hrs; assay type: functional; conditions: read-out: MIC100
Escherichia coli [9] = test: Antibacterial activity against Escherichia coli ATCC 25922 harboring hldE knock-out assessed as inhibition of bacterial growth incubated for 18 hrs; assay type: functional; conditions: read-out: MIC100

MIC (Escherichia coli [1]) [µg/mL]	MIC (Klebsiella pneumoniae [7]) [µg/mL]	Compound	IC50 at 40 h [2] [µg/mL]	MIC (Klebsiella pneumoniae [3]) [µg/mL]	MIC (Staphylococcus aureus) [µg/mL]	MIC (Pseudomonas aeruginosa) [µg/mL]	MIC (Escherichia coli [4]) [µg/mL]	MeCN percentage at peak elution [5] [%]	MIC (Acinetobacter baumannii) [µg/mL]	hemolysis at 0.75 h, 400 ug/ml [6] [%]	MIC (Escherichia coli [8]) [µg/mL]	MIC (Escherichia coli [9]) [µg/mL]
2 (≈ 1.32 µM)	1 (≈ 0.66 µM)	CC[C@H](C)[C@@H](NC(=O)[C@@H](NC(=O)[C@H](CCC(=O)O)NC(=O)[C@H](Cc1cccc2ccccc12)NC(=O)[C@@H](CCN)NC(=O)[C@H](CCN)NC(=O)[C@H](CO)NC(=O)[C@@H](Cc1c[nH]c2ccccc12)NC(=O)[C@@H](CO)NC(=O)CNC(=O)[C@@H](CCN)NC(=O)[C@H](NC(=O)[C@H](C)N)C(C)C)C(C)C)C(=O)N[C@@H](C)C(=O)O	83 (≈ 54.8 µM)	–	–	–	–	–	–	52.9	–	–
32 (≈ 22.3 µM)	64 (≈ 44.5 µM)	CC[C@H](C)[C@@H](NC(=O)[C@@H](NC(=O)[C@H](CCC(=O)O)NC(=O)[C@H](Cc1ccccc1)NC(=O)[C@@H](CCN)NC(=O)[C@H](CCN)NC(=O)[C@H](CO)NC(=O)[C@@H](Cc1c[nH]c2ccccc12)NC(=O)[C@@H](CO)NC(=O)[C@H](CCN)NC(=O)[C@@H](CCN)NC(=O)[C@H](N)C(C)C)C(C)C)C(=O)N[C@@H](C)C(=O)O	> 170	–	–	–	–	–	–	0.3	–	–
16 (≈ 11 µM)	32 (≈ 22.1 µM)	CC[C@H](C)[C@@H](NC(=O)[C@@H](NC(=O)[C@H](CCC(=O)O)NC(=O)[C@H](Cc1ccccc1)NC(=O)[C@@H](CCN)NC(=O)[C@H](CCN)NC(=O)[C@H](CO)NC(=O)[C@@H](Cc1c[nH]c2ccccc12)NC(=O)[C@@H](C)NC(=O)CNC(=O)[C@@H](CCN)NC(=O)[C@H](NC(=O)[C@H](C)N)C(C)C)C(C)C)C(=O)N[C@@H](C)C(=O)O	139 (≈ 95.9 µM)	–	–	–	–	–	–	0	–	–
2 (≈ 1.36 µM)	1 (≈ 0.682 µM)	CC(C)[C@H](NC(=O)[C@H](CCC(=O)O)NC(=O)[C@H](Cc1ccccc1)NC(=O)[C@@H](CCN)NC(=O)[C@H](CCN)NC(=O)[C@H](CO)NC(=O)[C@@H](Cc1c[nH]c2ccccc12)NC(=O)[C@@H](CO)NC(=O)CNC(=O)[C@@H](CCN)NC(=O)[C@H](NC(=O)[C@H](C)N)C(C)C)C(=O)N[C@@H](C(=O)N[C@@H](C)C(=O)O)C(C)(C)C	23 (≈ 15.7 µM)	–	–	–	–	–	–	71.2	–	–
> 64	> 64	CC[C@H](C)[C@@H](NC(=O)[C@@H](NC(=O)[C@H](CCC(=O)O)NC(=O)[C@H](Cc1ccccc1)NC(=O)[C@@H](CCN)NC(=O)[C@H](CCN)NC(=O)[C@H](CO)NC(=O)[C@@H](Cc1c[nH]c2ccccc12)NC(=O)[C@@H](CO)NC(=O)CNC(=O)[C@@H](C)NC(=O)[C@H](N)C(C)C)C(C)C)C(=O)N[C@@H](C)C(=O)O	> 170	–	–	–	–	–	–	0.1	–	–
> 64	> 64	CC[C@H](C)[C@@H](NC(=O)[C@@H](NC(=O)[C@H](CCC(=O)O)NC(=O)[C@H](Cc1ccccc1)NC(=O)[C@@H](CCN)NC(=O)[C@H](CCN)NC(=O)[C@H](CC(=O)O)NC(=O)[C@@H](Cc1c[nH]c2ccccc12)NC(=O)[C@@H](CO)NC(=O)CNC(=O)[C@@H](CCN)NC(=O)[C@H](N)C(C)C)C(C)C)C(=O)N[C@@H](C)C(=O)O	> 170	–	–	–	–	–	–	0	–	–

Further lines, the molecule ahead of its results:

Compound	MIC (Escherichia coli [1]) [µg/mL]	MIC (Klebsiella pneumoniae [7]) [µg/mL]	IC50 at 40 h [2] [µg/mL]	MIC (Klebsiella pneumoniae [3]) [µg/mL]	MIC (Staphylococcus aureus) [µg/mL]	MIC (Pseudomonas aeruginosa) [µg/mL]	MIC (Escherichia coli [4]) [µg/mL]	MeCN percentage at peak elution [5] [%]	MIC (Acinetobacter baumannii) [µg/mL]	hemolysis at 0.75 h, 400 ug/ml [6] [%]	MIC (Escherichia coli [8]) [µg/mL]	MIC (Escherichia coli [9]) [µg/mL]
CC[C@H](C)[C@@H](NC(=O)[C@@H](NC(=O)[C@H](CCC(=O)O)NC(=O)[C@H](Cc1ccccc1)NC(=O)[C@@H](CCN)NC(=O)[C@H](CCN)NC(=O)[C@H](CO)NC(=O)[C@@H](Cc1c[nH]c2ccccc12)NC(=O)[C@@H](CO)NC(=O)[C@H](CC(=O)O)NC(=O)[C@@H](CCN)NC(=O)[C@H](N)C(C)C)C(C)C)C(=O)N[C@@H](C)C(=O)O	> 64	> 64	13 (≈ 8.95 µM)	> 64	> 64	64 (≈ 44.1 µM)	64	37.8	> 64	0	–	–
CC[C@H](C)[C@@H](NC(=O)[C@@H](NC(=O)[C@H](CCC(=O)O)NC(=O)[C@H](Cc1ccccc1)NC(=O)[C@@H](CCN)NC(=O)[C@H](CCN)NC(=O)[C@H](CO)NC(=O)[C@@H](Cc1c[nH]c2ccccc12)NC(=O)[C@@H](CO)NC(=O)CNC(=O)[C@@H](CCN)NC(=O)[C@H](NC(=O)[C@@H](C)N)C(C)C)C(C)C)C(=O)N[C@@H](C)C(=O)O	4 (≈ 2.73 µM)	2 (≈ 1.36 µM)	98 (≈ 66.9 µM)	4	> 64	32 (≈ 21.8 µM)	4	39.6	> 64	2.3	4 (≈ 2.73 µM)	2 (≈ 1.36 µM)
CC[C@H](C)[C@@H](NC(=O)[C@@H](NC(=O)[C@H](CCC(=O)O)NC(=O)[C@H](Cc1ccc(-c2ccccc2)cc1)NC(=O)[C@@H](CCN)NC(=O)[C@H](CCN)NC(=O)[C@H](CO)NC(=O)[C@@H](Cc1c[nH]c2ccccc12)NC(=O)[C@@H](CO)NC(=O)CNC(=O)[C@@H](CCN)NC(=O)[C@H](N)C(C)C)C(C)C)C(=O)N[C@@H](C)C(=O)O	8 (≈ 5.44 µM)	4 (≈ 2.72 µM)	23 (≈ 15.6 µM)	4	> 64	64 (≈ 43.5 µM)	–	–	> 64	24.5	< 0.125	2 (≈ 1.36 µM)
CC[C@H](C)[C@@H](NC(=O)[C@@H](NC(=O)[C@H](CCC(=O)O)NC(=O)[C@H](Cc1ccccc1)NC(=O)[C@@H](CCN)NC(=O)[C@H](CCN)NC(=O)[C@H](CO)NC(=O)[C@@H](Cc1c[nH]c2ccccc12)NC(=O)[C@@H](CO)NC(=O)CNC(=O)[C@@H](CN)NC(=O)[C@H](NC(=O)[C@H](C)N)C(C)C)C(C)C)C(=O)N[C@@H](C)C(=O)O	> 64	> 64	> 170	–	–	–	–	–	–	0	–	–
CC[C@H](C)[C@@H](NC(=O)[C@@H](NC(=O)[C@H](CCC(=O)O)NC(=O)[C@H](Cc1ccccc1)NC(=O)[C@@H](CCN)NC(=O)[C@H](CN)NC(=O)[C@H](CO)NC(=O)[C@@H](Cc1c[nH]c2ccccc12)NC(=O)[C@@H](CO)NC(=O)CNC(=O)[C@@H](CCN)NC(=O)[C@H](N)C(C)C)C(C)C)C(=O)N[C@@H](C)C(=O)O	64 (≈ 46.4 µM)	32 (≈ 23.2 µM)	> 170	–	–	–	–	–	–	1.5	–	–
CC(C)[C@H](NC(=O)[C@H](CCC(=O)O)NC(=O)[C@H](Cc1ccccc1)NC(=O)[C@@H](CCN)NC(=O)[C@H](CCN)NC(=O)[C@H](CO)NC(=O)[C@@H](Cc1c[nH]c2ccccc12)NC(=O)[C@@H](CO)NC(=O)CNC(=O)[C@@H](CCN)NC(=O)[C@H](N)C(C)C)C(=O)N[C@H](C)C(=O)N[C@@H](C)C(=O)O	> 64	64 (≈ 47.3 µM)	> 170	–	–	–	–	–	–	4.3	–	–
CC[C@H](C)[C@@H](NC(=O)[C@@H](NC(=O)[C@H](CCC(=O)O)NC(=O)[C@H](Cc1ccccc1)NC(=O)[C@@H](CCN)NC(=O)[C@H](CCN)NC(=O)[C@H](CO)NC(=O)[C@@H](Cc1c[nH]c2ccccc12)NC(=O)[C@@H](CO)NC(=O)CNC(=O)[C@@H](CCN)NC(=O)[C@H](N)C(C)C)C(C)C)C(=O)N[C@H](C(=O)O)C(C)(C)C	32 (≈ 22.3 µM)	32 (≈ 22.3 µM)	43 (≈ 29.9 µM)	–	–	–	–	–	–	12.1	–	–
CC[C@H](C)[C@@H](NC(=O)[C@@H](NC(=O)[C@H](CCC(=O)O)NC(=O)[C@H](Cc1ccccc1)NC(=O)[C@@H](CCN)NC(=O)[C@H](CCN)NC(=O)[C@H](CO)NC(=O)[C@@H](Cc1c[nH]c2ccccc12)NC(=O)[C@@H](CO)NC(=O)CNC(=O)[C@@H](CCN)NC(=O)[C@H](NC(=O)CN)C(C)C)C(C)C)C(=O)N[C@@H](C)C(=O)O	32 (≈ 22 µM)	32 (≈ 22 µM)	> 70	–	–	–	–	–	–	0	–	–
CC[C@H](C)[C@@H](NC(=O)[C@@H](NC(=O)[C@H](CCC(=O)O)NC(=O)[C@H](Cc1ccccc1)NC(=O)[C@@H](CCN)NC(=O)[C@H](CCN)NC(=O)[C@H](CO)NC(=O)[C@@H](Cc1c[nH]c2ccccc12)NC(=O)[C@@H](CO)NC(=O)CNC(=O)[C@@H](CCN)NC(=O)[C@H](NC(=O)[C@H](C)NC)C(C)C)C(C)C)C(=O)N[C@@H](C)C(=O)O	8 (≈ 5.41 µM)	8 (≈ 5.41 µM)	> 70	–	–	–	–	–	–	5.3	–	–
CC[C@H](C)[C@@H](NC(=O)[C@@H](NC(=O)[C@H](CCC(=O)O)NC(=O)[C@H](Cc1ccccc1)NC(=O)[C@@H](CCN)NC(=O)[C@H](CCN)NC(=O)[C@H](CO)NC(=O)[C@@H](Cc1c[nH]c2ccccc12)NC(=O)[C@@H](CO)NC(=O)CNC(=O)[C@@H](CCN)NC(=O)[C@H](NC(=O)[C@@H](N)CO)C(C)C)C(C)C)C(=O)N[C@@H](C)C(=O)O	32 (≈ 21.6 µM)	16 (≈ 10.8 µM)	> 170	–	–	–	–	–	–	4.2	–	–
CC[C@H](C)[C@@H](NC(=O)[C@@H](NC(=O)[C@H](CCC(=O)O)NC(=O)[C@H](Cc1ccccc1)NC(=O)[C@@H](CCN)NC(=O)[C@H](CCN)NC(=O)[C@H](CO)NC(=O)[C@@H](Cc1c[nH]c2ccccc12)NC(=O)[C@@H](CO)NC(=O)CNC(=O)[C@@H](CCN)NC(=O)[C@H](NC(=O)[C@@H](N)CC(=O)O)C(C)C)C(C)C)C(=O)N[C@@H](C)C(=O)O	> 64	> 64	> 170	–	–	–	–	–	–	0	–	–

Source: ChEMBL document CHEMBL5518181, “Studies of antibacterial activity (in vitro and in vivo) and mode of action for des-acyl tridecaptins (DATs)” (Eur J Med Chem, 2024)
